Legend:
Hepatitis C virus [1] = assay: Antiviral activity against HCV genotype 1b replicon infected in human HuH7 cells assessed as inhibition of viral RNA replication by luciferase reporter assay; type: functional, organism-based, Hepacivirus hominis; conditions: Huh-7
Hepatitis C virus [2] = assay: Antiviral activity against HCV genotype 1 in patient assessed as virological response rate; type: functional, Hepacivirus hominis
[3] = Stability of the compound in water at pH 2; type: physicochemical; conditions: buffer
[4] = Stability of the compound in water at pH 7; type: physicochemical; conditions: buffer
Rattus norvegicus [5] = assay: Prodrug conversion in Sprague-Dawley rat assessed as formation of daclatasvir at 5 mg/kg, po measured over 9 hrs; type: ADME, organism-based; conditions: in vivo
[6] = Half life in blood (unknown origin); type: ADME, tissue-based
Rattus norvegicus [7] = assay: Cmax in Sprague-Dawley rat assessed as daclatasvir at 5 mg/kg, po; type: ADME, organism-based; design: dose 5 mg/kg, route oral; conditions: in vivo
Rattus norvegicus [8] = assay: Tmax in Sprague-Dawley rat assessed as daclatasvir at 5 mg/kg, po; type: ADME, organism-based; conditions: in vivo
Rattus norvegicus [9] = assay: AUC (0 to 8 hrs) in Sprague-Dawley rat assessed as daclatasvir at 5 mg/kg, po; type: ADME, organism-based; design: time < 8 hr, dose 5 mg/kg, route oral; conditions: in vivo
Rattus norvegicus [10] = assay: AUC (0 to infinity) in Sprague-Dawley rat assessed as daclatasvir at 5 mg/kg, po; type: ADME, organism-based; design: dose 5 mg/kg, time infinity, route oral; conditions: in vivo
Rattus norvegicus [11] = assay: Mean residence time in Sprague-Dawley rat assessed as daclatasvir at 5 mg/kg, po; type: ADME, organism-based; conditions: in vivo
Rattus norvegicus [12] = assay: Half life in Sprague-Dawley rat assessed as daclatasvir at 5 mg/kg, po; type: ADME, organism-based; conditions: in vivo
[13] = Stability of the compound in blood (unknown origin); type: ADME, tissue-based
Rattus norvegicus [14] = assay: Drug level in Sprague-Dawley rat treated with ((S,S)-5,5'-([1,1'-Biphenyl]-4,4'-diyl)bis(2-((S)-1-((S)-2-((methoxycarbonyl)amino)-3-methylbutanoyl)pyrrolidin-2-yl)-1H-imidazole-5,1-diyl))bis(2-oxoethane-2,1-diyl)diacetate at 5 mg/kg, po measured over 9 hrs; type: ADME, organism-based; conditions: in vivo
[15] = Cmax in Sprague-Dawley rat at 5 mg/kg, po; type: ADME, organism-based; design: dose 5 mg/kg, route oral; conditions: in vivo
[16] = Tmax in Sprague-Dawley rat at 5 mg/kg, po; type: ADME, organism-based; conditions: in vivo
[17] = AUC (0 to 8 hrs) in Sprague-Dawley rat at 5 mg/kg, po; type: ADME, organism-based; design: time < 8 hr, dose 5 mg/kg, route oral; conditions: in vivo
[18] = AUC (0 to infinity) in Sprague-Dawley rat at 5 mg/kg, po; type: ADME, organism-based; design: dose 5 mg/kg, route oral, time infinity; conditions: in vivo
[19] = Mean residence time in Sprague-Dawley rat at 5 mg/kg, po; type: ADME, organism-based; conditions: in vivo
[20] = Half life in Sprague-Dawley rat at 5 mg/kg, po; type: ADME, organism-based; conditions: in vivo
Hepatitis C virus [21] = assay: microbe, parasite or virus in culture; conditions: JFH-1, Huh-7
Description: Antiviral activity against HCV genotype 1b JFH-1 infected in human HuH7 cells assessed as inhibition of viral replication

## COC(=O)N[C@H](C(=O)N1CCC[C@H]1c1ncc(-c2ccc(-c3ccc(-c4cnc([C@@H]5CCCN5C(=O)[C@@H](NC(=O)OC)C(C)C)n4C(=O)c4ccccc4)cc3)cc2)n1C(=O)c1ccccc1)C(C)C
Hepatitis C virus [1]
  EC50: 155 nM

## COC(=O)N[C@H](C(=O)N1CCC[C@H]1c1ncc(-c2ccc(-c3ccc(-c4cnc([C@@H]5CCCN5C(=O)[C@@H](NC(=O)OC)C(C)C)n4C(=O)CC4CCCCC4)cc3)cc2)n1C(=O)CC1CCCCC1)C(C)C
Hepatitis C virus [1]
  EC50: 110 nM

## COC(=O)N[C@H](C(=O)N1CCC[C@H]1c1ncc(-c2ccc(-c3ccc(-c4cnc([C@@H]5CCCN5C(=O)[C@@H](NC(=O)OC)C(C)C)n4C(=O)CC(C)(C)C)cc3)cc2)n1C(=O)CC(C)(C)C)C(C)C
Hepatitis C virus [1]
  EC50: > 100000 nM

## CCC(=O)n1c(-c2ccc(-c3ccc(-c4cnc([C@@H]5CCCN5C(=O)[C@@H](NC(=O)OC)C(C)C)n4C(=O)CC)cc3)cc2)cnc1[C@@H]1CCCN1C(=O)[C@@H](NC(=O)OC)C(C)C
Hepatitis C virus [1]
  EC50: 39 nM

## COC(=O)N[C@H](C(=O)N1CCC[C@H]1c1ncc(-c2ccc(-c3ccc(-c4cnc([C@@H]5CCCN5C(=O)[C@@H](NC(=O)OC)C(C)C)n4C(=O)OCC(C)=O)cc3)cc2)n1C(=O)OCC(C)=O)C(C)C
Hepatitis C virus [1]
  EC50: > 100000 nM

## COC(=O)N[C@H](C(=O)N1CCC[C@H]1c1ncc(-c2ccc(-c3ccc(-c4cnc([C@@H]5CCCN5C(=O)[C@@H](NC(=O)OC)C(C)C)n4C(=O)OC(C)(C)C)cc3)cc2)n1C(=O)OC(C)(C)C)C(C)C
Hepatitis C virus [1]
  EC50: > 100000 nM

## CCOC(=O)n1c(-c2ccc(-c3ccc(-c4cnc([C@@H]5CCCN5C(=O)[C@@H](NC(=O)OC)C(C)C)n4C(=O)OCC)cc3)cc2)cnc1[C@@H]1CCCN1C(=O)[C@@H](NC(=O)OC)C(C)C
Hepatitis C virus [1]
  EC50: > 100000 nM

## COC(=O)N[C@H](C(=O)N1CCC[C@H]1c1ncc(-c2ccc(-c3ccc(-c4cnc([C@@H]5CCCN5C(=O)[C@@H](NC(=O)OC)C(C)C)n4C(=O)CCc4ccccc4)cc3)cc2)n1C(=O)CCc1ccccc1)C(C)C
Hepatitis C virus [1]
  EC50: 988 nM

## COC(=O)N[C@H](C(=O)N1CCC[C@H]1c1ncc(-c2ccc(-c3ccc(-c4cnc([C@@H]5CCCN5C(=O)[C@@H](NC(=O)OC)C(C)C)n4C(=O)CCC4CCCCC4)cc3)cc2)n1C(=O)CCC1CCCCC1)C(C)C
Hepatitis C virus [1]
  EC50: 124 nM

## COC(=O)N[C@H](C(=O)N1CCC[C@H]1c1ncc(-c2ccc(-c3ccc(-c4cnc([C@@H]5CCCN5C(=O)[C@@H](NC(=O)OC)C(C)C)n4C(=O)C(C)C)cc3)cc2)n1C(=O)C(C)C)C(C)C
Hepatitis C virus [1]
  EC50: 131 nM

## COC(=O)N[C@H](C(=O)N1CCC[C@H]1c1ncc(-c2ccc(-c3ccc(-c4cnc([C@@H]5CCCN5C(=O)[C@@H](NC(=O)OC)C(C)C)n4C(=O)CC(C)CC(C)(C)C)cc3)cc2)n1C(=O)CC(C)CC(C)(C)C)C(C)C (some centres not stated)
Hepatitis C virus [1]
  EC50: > 100000 nM

## COC(=O)N[C@H](C(=O)N1CCC[C@H]1c1ncc(-c2ccc(-c3ccc(-c4cnc([C@@H]5CCCN5C(=O)[C@@H](NC(=O)OC)C(C)C)n4C(=O)c4ccc(C)cc4)cc3)cc2)n1C(=O)c1ccc(C)cc1)C(C)C
Hepatitis C virus [1]
  EC50: 231 nM

## NC(=O)c1ncn([C@@H]2O[C@H](CO)[C@@H](O)[C@H]2O)n1 [RIBAVIRIN]
Hepatitis C virus [2]
  Activity: <50%

## COC(=O)N[C@H](C(=O)N1CCC[C@H]1c1ncc(-c2ccc(-c3ccc(-c4cnc([C@@H]5CCCN5C(=O)[C@@H](NC(=O)OC)C(C)C)n4C(=O)OC(C)C)cc3)cc2)n1C(=O)OC(C)C)C(C)C
Hepatitis C virus [1]
  EC50: > 100000 nM

## COC(=O)N[C@H](C(=O)N1CCC[C@H]1c1ncc(-c2ccc(-c3ccc(-c4cnc([C@@H]5CCCN5C(=O)[C@@H](NC(=O)OC)C(C)C)n4C(=O)Cc4ccccc4)cc3)cc2)n1C(=O)Cc1ccccc1)C(C)C
Hepatitis C virus [1]
  EC50: 687 nM

## COC(=O)N[C@H](C(=O)N1CCC[C@H]1c1ncc(-c2ccc(-c3ccc(-c4cnc([C@@H]5CCCN5C(=O)[C@@H](NC(=O)OC)C(C)C)n4C(=O)C(C)(C)C)cc3)cc2)n1C(=O)C(C)(C)C)C(C)C
Hepatitis C virus [1]
  EC50: > 100000 nM

## COC(=O)N[C@H](C(=O)N1CCC[C@H]1c1ncc(-c2ccc(-c3ccc(-c4cnc([C@@H]5CCCN5C(=O)[C@@H](NC(=O)OC)C(C)C)n4C(=O)CCC4CCCC4)cc3)cc2)n1C(=O)CCC1CCCC1)C(C)C
Hepatitis C virus [1]
  EC50: 195 nM

## COC(=O)N[C@H](C(=O)N1CCC[C@H]1c1ncc(-c2ccc(-c3ccc(-c4cnc([C@@H]5CCCN5C(=O)[C@@H](NC(=O)OC)C(C)C)n4C(=O)c4ccc(Cl)cc4)cc3)cc2)n1C(=O)c1ccc(Cl)cc1)C(C)C
Hepatitis C virus [1]
  EC50: 77 nM

## CCCCCC(=O)n1c(-c2ccc(-c3ccc(-c4cnc([C@@H]5CCCN5C(=O)[C@@H](NC(=O)OC)C(C)C)n4C(=O)CCCCC)cc3)cc2)cnc1[C@@H]1CCCN1C(=O)[C@@H](NC(=O)OC)C(C)C
Hepatitis C virus [1]
  EC50: 324 nM

## CCCOC(=O)n1c(-c2ccc(-c3ccc(-c4cnc([C@@H]5CCCN5C(=O)[C@@H](NC(=O)OC)C(C)C)n4C(=O)OCCC)cc3)cc2)cnc1[C@@H]1CCCN1C(=O)[C@@H](NC(=O)OC)C(C)C
Hepatitis C virus [1]
  EC50: > 100000 nM

## COC(=O)N[C@H](C(=O)N1CCC[C@H]1c1ncc(-c2ccc(-c3ccc(-c4cnc([C@@H]5CCCN5C(=O)[C@@H](NC(=O)OC)C(C)C)n4C(=O)OC)cc3)cc2)n1C(=O)OC)C(C)C
Hepatitis C virus [1]
  EC50: > 100000 nM

## CCCCCCC(=O)n1c(-c2ccc(-c3ccc(-c4cnc([C@@H]5CCCN5C(=O)[C@@H](NC(=O)OC)C(C)C)n4C(=O)CCCCCC)cc3)cc2)cnc1[C@@H]1CCCN1C(=O)[C@@H](NC(=O)OC)C(C)C
Hepatitis C virus [1]
  EC50: 542 nM

## COC(=O)N[C@H](C(=O)N1CCC[C@H]1c1ncc(-c2ccc(-c3ccc(-c4cnc([C@@H]5CCCN5C(=O)[C@@H](NC(=O)OC)C(C)C)n4C(=O)COC(C)=O)cc3)cc2)n1C(=O)COC(C)=O)C(C)C
Hepatitis C virus [1]
  EC50: 0.08 nM
[3]
  Stability: Stable
[4]
  Stability: Stable
Rattus norvegicus [5]
  Drug metabolism: metabolite_detected
[6]
  half-life: < 0.5 h
Rattus norvegicus [7]
  Cmax: 341 ng/mL
Rattus norvegicus [8]
  Tmax: 4.05 h
Rattus norvegicus [9]
  AUC: 3330 ng·h/mL
Rattus norvegicus [10]
  AUC: 3440 ng·h/mL
Rattus norvegicus [11]
  MRT: 4.01 h
Rattus norvegicus [12]
  t1/2: 2.93 h

## CCCC(=O)n1c(-c2ccc(-c3ccc(-c4cnc([C@@H]5CCCN5C(=O)[C@@H](NC(=O)OC)C(C)C)n4C(=O)CCC)cc3)cc2)cnc1[C@@H]1CCCN1C(=O)[C@@H](NC(=O)OC)C(C)C
Hepatitis C virus [1]
  EC50: 85 nM

## COC(=O)N[C@H](C(=O)N1CCC[C@H]1c1nc(-c2ccc(-c3ccc(-c4c[nH]c([C@@H]5CCCN5C(=O)[C@@H](NC(=O)OC)C(C)C)n4)cc3)cc2)c[nH]1)C(C)C
[3]
  Stability: Stable
[4]
  Stability: Stable
[13]
  Stability: Stable
Rattus norvegicus [14]
  Drug metabolism: metabolite_detected
[15]
  Cmax: 484 ng/mL
[16]
  Tmax: 3.01 h
[17]
  AUC(0-t) at 8 h: 3210 ng·h/mL
[18]
  AUC(0-inf): 3320 ng·h/mL
[19]
  MRT: 3.43 h
[20]
  half-life: 1.66 h
Hepatitis C virus [21]
  EC50: 0.028 nM

## COC(=O)N[C@H](C(=O)N1CCC[C@H]1c1ncc(-c2ccc(-c3ccc(-c4cnc([C@@H]5CCCN5C(=O)[C@@H](NC(=O)OC)C(C)C)n4C(C)=O)cc3)cc2)n1C(C)=O)C(C)C
Hepatitis C virus [1]
  EC50: 12 nM

## CCCCC(=O)n1c(-c2ccc(-c3ccc(-c4cnc([C@@H]5CCCN5C(=O)[C@@H](NC(=O)OC)C(C)C)n4C(=O)CCCC)cc3)cc2)cnc1[C@@H]1CCCN1C(=O)[C@@H](NC(=O)OC)C(C)C
Hepatitis C virus [1]
  EC50: 231 nM

Reference: ChEMBL document CHEMBL3600371, “Design and synthesis of imidazole N-H substituted amide prodrugs as inhibitors of hepatitis C virus replication” (Bioorg Med Chem Lett, 2015)
